US12509431B2, “1,4-dihydroquinazolinone compounds and uses thereof” (Edgewise Therapeutics, Inc., priority 2022, dated 2025)

Tests used:
Type in all cases: biochemical
Settings in all cases: Table 8
Porcine Atria myofibrils = test: Myofibril ATPase assay (PK/LDH NADH-coupled), atria myofibrils
Experimental: (§1) Myofibril ATPase Assay Procedure: BSA, ATP, NADH, PEP, and DTT solutions were thawed at room temperature, then transferred to ice. Pellet-frozen myofibrils were transferred with approximately twice the required volume into a sufficiently large tube and capped. Myofibrils were thawed by rolling in a water bath for approximately 15 min at room temperature and cooled on ice. Buffers A and B were prepared by adjusting volumes as necessary for required number of wells and stored on ice. 0.5 μL of the compounds to be assayed were added into wells. 25 μL of Buffer A was dispensed into the wells, followed by 25 μL of Buffer B. The wells were measured for absorbance at 340 nm, using a kinetic protocol in which the wells are read every 1.5-2 min for 75 min. Assay data analysis was performed using a python script that filtered the raw data to retain those points falling between a starting and ending time and between a maximum and minimum absorbance, then used the filtered time-domain 340 nm absorbance data in each well to calculate a slope via linear regression analysis in units of mAU/min. Compound slopes were normalized between 100% and 0% activity, where 100% represented the slope of wells containing only compound vehicle, and fit to a 4-parameter logistic model. In addition to the fit parameters, the EC25% is calculated, relative to the 100% normalized value. In the case of inhibitors, EC50% is also calculated, if available. Fit parameters, calculated effective concentrations, filtered raw data, and calculated slopes were exported, in addition to compound-specific graphs of normalized ATPase activity versus concentration in μM.

[1] = biological target: T1, Porcine Ventricle myofibrils (left ventricle of Yucatan minipigs) (Sus scrofa, UniProt P79293); test: Myofibril ATPase assay (PK/LDH NADH-coupled), ventricle myofibrils
T1 construct: Myofibrils from porcine cardiac muscle was isolated from the left ventricle of Yucatan minipigs; tissue Exemplar Genetics; host or cells: left ventricle of Yucatan minipigs
T1 sequence (P79293 whole entry): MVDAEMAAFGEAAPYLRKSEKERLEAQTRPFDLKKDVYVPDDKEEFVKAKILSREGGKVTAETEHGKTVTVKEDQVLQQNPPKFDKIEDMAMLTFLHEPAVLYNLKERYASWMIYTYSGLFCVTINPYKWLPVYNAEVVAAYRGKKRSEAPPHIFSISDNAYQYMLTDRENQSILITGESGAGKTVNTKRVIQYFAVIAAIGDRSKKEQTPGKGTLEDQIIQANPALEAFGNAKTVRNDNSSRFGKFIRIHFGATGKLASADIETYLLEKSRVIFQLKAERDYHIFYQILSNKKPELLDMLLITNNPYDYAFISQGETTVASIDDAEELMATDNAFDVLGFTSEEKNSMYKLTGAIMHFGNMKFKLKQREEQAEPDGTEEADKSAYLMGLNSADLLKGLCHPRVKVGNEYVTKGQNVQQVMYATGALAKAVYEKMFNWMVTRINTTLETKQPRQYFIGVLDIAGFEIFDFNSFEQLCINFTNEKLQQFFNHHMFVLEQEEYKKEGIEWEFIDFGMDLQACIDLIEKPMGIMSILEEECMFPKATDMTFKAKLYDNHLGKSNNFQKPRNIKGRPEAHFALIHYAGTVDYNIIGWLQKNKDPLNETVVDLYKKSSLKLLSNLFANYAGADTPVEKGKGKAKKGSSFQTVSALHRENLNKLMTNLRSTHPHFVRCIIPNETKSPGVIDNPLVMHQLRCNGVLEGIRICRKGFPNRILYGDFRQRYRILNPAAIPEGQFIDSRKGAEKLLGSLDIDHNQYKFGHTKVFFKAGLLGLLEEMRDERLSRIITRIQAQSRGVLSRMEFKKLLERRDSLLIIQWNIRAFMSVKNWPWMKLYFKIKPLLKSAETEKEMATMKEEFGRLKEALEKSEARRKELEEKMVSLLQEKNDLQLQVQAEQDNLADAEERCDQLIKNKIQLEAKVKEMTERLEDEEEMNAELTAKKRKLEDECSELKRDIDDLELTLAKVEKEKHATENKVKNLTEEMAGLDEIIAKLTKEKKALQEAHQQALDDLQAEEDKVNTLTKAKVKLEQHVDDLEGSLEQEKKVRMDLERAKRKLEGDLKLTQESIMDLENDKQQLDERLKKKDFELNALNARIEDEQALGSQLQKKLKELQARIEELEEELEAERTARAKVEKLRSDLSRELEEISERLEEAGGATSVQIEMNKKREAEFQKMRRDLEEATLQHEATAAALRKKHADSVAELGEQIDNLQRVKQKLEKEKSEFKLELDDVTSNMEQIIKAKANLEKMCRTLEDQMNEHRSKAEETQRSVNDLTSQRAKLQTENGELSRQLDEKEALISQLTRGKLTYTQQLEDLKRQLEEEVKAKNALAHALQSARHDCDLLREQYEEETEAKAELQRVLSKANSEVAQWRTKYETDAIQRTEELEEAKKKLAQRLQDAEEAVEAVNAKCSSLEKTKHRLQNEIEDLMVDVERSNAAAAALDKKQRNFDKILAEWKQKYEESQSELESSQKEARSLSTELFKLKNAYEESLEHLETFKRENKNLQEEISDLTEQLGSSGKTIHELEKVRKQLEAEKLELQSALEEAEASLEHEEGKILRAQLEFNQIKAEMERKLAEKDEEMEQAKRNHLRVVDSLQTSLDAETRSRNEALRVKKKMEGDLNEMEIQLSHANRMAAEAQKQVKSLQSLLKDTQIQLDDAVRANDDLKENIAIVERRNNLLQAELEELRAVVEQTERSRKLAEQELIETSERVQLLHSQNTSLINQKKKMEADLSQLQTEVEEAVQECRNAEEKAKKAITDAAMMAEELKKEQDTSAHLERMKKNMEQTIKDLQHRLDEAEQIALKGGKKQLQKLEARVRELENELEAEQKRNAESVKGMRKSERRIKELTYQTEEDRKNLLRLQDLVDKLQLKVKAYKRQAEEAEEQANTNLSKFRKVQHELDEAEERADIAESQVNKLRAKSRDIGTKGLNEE
Experimental: (§2) Myofibril ATPase assays are known in the art to be useful in evaluating small molecules for the treatment of HCM and other cardiac indications. Myosin ATPase activity is assessed by using a coupled reaction system, in which ADP generated by the myosin ATPase function is coupled to the disappearance of NADH through the pyruvate kinase/lactate dehydrogenase (PK-LDH) system. ATPase activity produces ADP, which is used as a substrate for PK to produce pyruvate and regenerate ATP. The pyruvate is then used as a substrate by LDH to oxidize NADH to NAD+. The rate of the reaction is monitored through the time-dependent disappearance of NADH using absorbance at 340 nm, which, when the couple system is in stoichiometric excess, is directly correlated to the ATPase activity of the myosin. Inhibition of ATPase activity by the assayed compounds is indicated by a reduced rate of NADH loss, relative to vehicle-treated controls, over the experimental time window. Rabbit Skeletal and Porcine Ventricle are the primary sources of myofibril material.
(§3) Materials: The following stock solutions and reagents were used in the Myofibril ATPase Assay:
(§4) Stock Solutions of pCa buffer. Combine PIPES, CaCl2), and EGTA solutions with water. Adjust pH to 7.0 and bring final volume to 100 mL.
(§5) Buffer A & Buffer B. Prepare buffers A and B according to the table below.
as §1
Cardiac Myofibril Isolation:
Myofibrils from porcine cardiac muscle was isolated from the left ventricle of Yucatan minipigs. Myofibrils were prepared using a method based upon those described in Herrmann et al. (1993) and summarized here. Minced tissue was homogenized for 50 sec with a Polytron homogenizer into 10 volumes (relative to weight in grams) of Isolation Buffer A (75 mM KCl, 10 mM Imidazole, 2 mM MgCl2, 2 mM EGTA, 1 mM NaN3, 1% v/v Triton X-100) supplemented with 4 mM Phosphocreatine, 1 mM ATP, 50 mM BDM, 1 mM DTT, 1 mM Benzamide HCl, 0.1 mM PMSF, 10 μM leupeptin, 5 μM pepstatin, and 10 mM EDTA. The myofibrils were recovered by centrifugation (Beckman Allegra 6R, 1200 g, 15 min) and resuspended in 10 volumes Isolation Buffer B (Buffer A above without supplemental reagents). The myofibrils were further homogenized described above and recovered by centrifugation for 7 mins. Cellular membranes and debris were removed by 3 washes in Isolation Buffer B, centrifuging each as before. […]

[2] = tested on: Rabbit Skeletal myofibrils (rabbit psoas muscle); test: Myofibril ATPase assay (PK/LDH NADH-coupled), skeletal myofibrils
Experimental: as §2, §3, §4, §5, §1
Skeletal Myofibril Isolation:
Myofibrils from various animals and tissue types were acquired from a variety of sources: rabbit psoas muscle was purchased from Pel-Freez Biologicals (Rogers, AR) and porcine cardiac muscle was purchased from Exemplar Genetics. All myofibrils were prepared using a method based upon those described in Herrmann et al. (1993) and summarized here. Minced tissue was homogenized for 50 sec with a Polytron homogenizer into 10 volumes (relative to weight in grams) of Isolation Buffer A (50 mM Tris, pH 8.0, 0.1 M potassium acetate, 5 mM KCl, 2 mM DTT, 5 mM EDTA, 0.5% v/v Triton X-100) supplemented with 0.1 mM PMSF, 10 μM leupeptin, 5 μM pepstatin, and 0.5 mM sodium azide. The myofibrils were recovered by centrifugation (Beckman Allegra 6R, 1200 g, 10 min) and resuspended in 10 volumes Isolation Buffer B (Buffer A above without protease inhibitors or sodium azide). The myofibrils were further homogenized as before and recovered by centrifugation. […]

SMILES	Porcine Atria IC25 (Porcine Atria myofibrils) [nM]	Porcine Ventricle IC25 [1] [nM]	Rabbit Psoas IC25 [2] [nM]
C[C@H](NC(=O)CN1C(=O)Nc2ccc(F)c(F)c2[C@@H]1C)c1ccc(F)cc1F (relative stereo) [Compound B231, 2-[(4S*)-5,6-Difluoro-4-methyl-2-oxo-1,4-dihydroquinazolin-3-yl]-N-[(1S)-1-(2,4-difluorophenyl)ethyl]acetamide]	210	1558	21.07
C[C@H](NC(=O)CN1C(=O)Nc2ccc(F)c(F)c2[C@H]1C)c1ccc(F)cc1F (relative stereo) [Compound B232, 2-[(4R*)-5,6-Difluoro-4-methyl-2-oxo-1,4-dihydroquinazolin-3-yl]-N-[(1S)-1-(2,4-difluorophenyl)ethyl]acetamide]	40	396.3	32.8
Cc1cc(C#N)nnc1C(C)NC(=O)CN1Cc2c(ccc(F)c2F)NC1=O (single isomer, unassigned) [Compound B23]	40	34.7	12.4
Cc1ccnnc1C(C)NC(=O)CN1Cc2c(ccc(F)c2F)NC1=O (single isomer, unassigned) [Compound B25]	700	2494	4823
Cc1cc([C@H](C)NC(=O)CN2Cc3c(ccc(F)c3F)NC2=O)ncc1C#N (single isomer, unassigned) [Compound B35]	580	948	1252
Cc1cnncc1C(C)NC(=O)CN1Cc2c(ccc(F)c2F)NC1=O (single isomer, unassigned) [Compound B47]	100000	96660	100000
CC(NC(=O)CN1Cc2c(ccc(F)c2F)NC1=O)c1cc(C#N)c(F)cn1 (single isomer, unassigned) [Compound B53]	90	7534	100000
CC(C)C[C@H](C(=O)N[C@H](C)c1ccc(F)cc1F)N1Cc2cc(F)ccc2NC1=O (single isomer, unassigned) [Compound B67]	43940	9364	7017
Cc1cc(C(C)NC(=O)CN2Cc3c(ccc(F)c3F)NC2=O)ncc1F (single isomer, unassigned) [Compound B69]	610	298.7	3174
CC(NC(=O)CN1Cc2c(ccc(F)c2F)NC1=O)c1cc2c(cn1)OCCN2C (single isomer, unassigned) [Compound B74]	1240	100000	100000
O=C(CN1Cc2c(ccc(F)c2F)NC1=O)NC1COCc2cc(F)ccc21 (single isomer, unassigned) [Compound B76]	390	346.5	5359
O=C(CN1Cc2c(ccc(F)c2F)NC1=O)NC1COc2ccc(F)cc2C1 (single isomer, unassigned) [Compound B87]	190	2048	1110
CC1c2ccccc2NC(=O)N1CC(=O)N[C@@H](CO)c1ccc(F)cc1F (single isomer, unassigned) [Compound B200, N-[(1R)-1-(2,4-difluorophenyl)-2-hydroxyethyl]-2-[(4R*)-4-methyl-2-oxo-1,4-dihydroquinazolin-3-yl]acetamide]	2450	79130	2863
COc1cnc([C@H](C)NC(=O)CN2Cc3cc(F)ccc3NC2=O)c(F)c1 [Compound B179]	–	100000	100000
